In publication PMC6598440 (Clinical chemistry, 2016):
Read-outs that look alike come from different tables or passages of the source.

Key:
[1] = Comparison of plasma and whole blood hydroxyurea concentrations; format: in vivo, patients with SCA
[2] = cited from earlier work
[3] = for degradation: whole dried blood on DMPK-C cards and VAMS devices, 4 °C, 30 days

hydroxyurea concentrations in plasma and whole blood compared ([1]; patients with SCA treated with hydroxyurea, venipuncture or finger-prick sampling): comparable
plasma and whole blood hydroxyurea concentrations compared ([1]; preliminary data using an HPLC method): equivalent
% of the target concentration measured in freshly prepared samples ([3]; DMPK-C cards, stored at 4 °C, 0.5 μg/mL, T = 7 days): 90.17 ± 0.44%
% of the target concentration measured in freshly prepared samples ([3]; DMPK-C cards, stored at 4 °C, 0.5 μg/mL, T = 14 days): 81.75 ± 3.85%
% of the target concentration measured in freshly prepared samples ([3]; DMPK-C cards, stored at 4 °C, 0.5 μg/mL, T = 30 days): 75.85 ± 4.08%
% of the target concentration measured in freshly prepared samples ([3]; DMPK-C cards, stored at 4 °C, 60.0 μg/mL, T = 7 days): 65.37 ± 1.07%
% of the target concentration measured in freshly prepared samples ([3]; DMPK-C cards, stored at 4 °C, 60.0 μg/mL, T = 14 days): 54.13 ± 3.39%
% of the target concentration measured in freshly prepared samples ([3]; DMPK-C cards, stored at 4 °C, 60.0 μg/mL, T = 30 days): 48.58 ± 0.23%
% of the target concentration measured in freshly prepared samples ([3]; DMPK-C cards, stored at −20 °C, 0.5 μg/mL, T = 7 days): 95.08 ± 0.01%
% of the target concentration measured in freshly prepared samples ([3]; DMPK-C cards, stored at −20 °C, 0.5 μg/mL, T = 14 days): 90.56 ± 13.29%
% of the target concentration measured in freshly prepared samples ([3]; DMPK-C cards, stored at −20 °C, 0.5 μg/mL, T = 30 days): 96.07 ± 5.12%
% of the target concentration measured in freshly prepared samples ([3]; DMPK-C cards, stored at −20 °C, 60.0 μg/mL, T = 7 days): 90.88 ± 1.83%
% of the target concentration measured in freshly prepared samples ([3]; DMPK-C cards, stored at −20 °C, 60.0 μg/mL, T = 14 days): 92.99 ± 2.03%
% of the target concentration measured in freshly prepared samples ([3]; DMPK-C cards, stored at −20 °C, 60.0 μg/mL, T = 30 days): 93.07 ± 3.11%
% of the target concentration measured in freshly prepared samples ([3]; DMPK-C cards, stored at −80 °C, 0.5 μg/mL, T = 7 days): 102.14 ± 0.59%
% of the target concentration measured in freshly prepared samples ([3]; DMPK-C cards, stored at −80 °C, 0.5 μg/mL, T = 14 days): 97.41 ± 14.36%
% of the target concentration measured in freshly prepared samples ([3]; DMPK-C cards, stored at −80 °C, 0.5 μg/mL, T = 30 days): 99.98 ± 3.81%
% of the target concentration measured in freshly prepared samples ([3]; DMPK-C cards, stored at −80 °C, 60.0 μg/mL, T = 7 days): 93.69 ± 3.64%
% of the target concentration measured in freshly prepared samples ([3]; DMPK-C cards, stored at −80 °C, 60.0 μg/mL, T = 14 days): 94.22 ± 2.34%
% of the target concentration measured in freshly prepared samples ([3]; DMPK-C cards, stored at −80 °C, 60.0 μg/mL, T = 30 days): 100.45 ± 1.09%
% of the target concentration measured in freshly prepared samples ([3]; VAMS devices, stored at 4 °C, 0.5 μg/mL, T = 7 days): 87.90 ± 10.32%
% of the target concentration measured in freshly prepared samples ([3]; VAMS devices, stored at 4 °C, 0.5 μg/mL, T = 14 days): 91.86 ± 7.97%
% of the target concentration measured in freshly prepared samples ([3]; VAMS devices, stored at 4 °C, 0.5 μg/mL, T = 30 days): 75.11 ± 0.56%
% of the target concentration measured in freshly prepared samples ([3]; VAMS devices, stored at 4 °C, 60.0 μg/mL, T = 7 days): 64.19 ± 1.28%
% of the target concentration measured in freshly prepared samples ([3]; VAMS devices, stored at 4 °C, 60.0 μg/mL, T = 14 days): 51.98 ± 0.46%
% of the target concentration measured in freshly prepared samples ([3]; VAMS devices, stored at 4 °C, 60.0 μg/mL, T = 30 days): 46.14 ± 0.98%
% of the target concentration measured in freshly prepared samples ([3]; VAMS devices, stored at −20 °C, 0.5 μg/mL, T = 7 days): 106.52 ± 12.11%
% of the target concentration measured in freshly prepared samples ([3]; VAMS devices, stored at −20 °C, 0.5 μg/mL, T = 14 days): 103.15 ± 2.56%
% of the target concentration measured in freshly prepared samples ([3]; VAMS devices, stored at −20 °C, 0.5 μg/mL, T = 30 days): 95.37 ± 6.01%
% of the target concentration measured in freshly prepared samples ([3]; VAMS devices, stored at −20 °C, 60.0 μg/mL, T = 7 days): 83.69 ± 1.28%
% of the target concentration measured in freshly prepared samples ([3]; VAMS devices, stored at −20 °C, 60.0 μg/mL, T = 14 days): 82.55 ± 1.65%
% of the target concentration measured in freshly prepared samples ([3]; VAMS devices, stored at −20 °C, 60.0 μg/mL, T = 30 days): 82.48 ± 0.78%
% of the target concentration measured in freshly prepared samples ([3]; VAMS devices, stored at −80 °C, 0.5 μg/mL, T = 7 days): 101.92 ± 10.34%
% of the target concentration measured in freshly prepared samples ([3]; VAMS devices, stored at −80 °C, 0.5 μg/mL, T = 14 days): 103.58 ± 3.20%
% of the target concentration measured in freshly prepared samples ([3]; VAMS devices, stored at −80 °C, 0.5 μg/mL, T = 30 days): 106.00 ± 8.10%
% of the target concentration measured in freshly prepared samples ([3]; VAMS devices, stored at −80 °C, 60.0 μg/mL, T = 7 days): 86.62 ± 1.86%
% of the target concentration measured in freshly prepared samples ([3]; VAMS devices, stored at −80 °C, 60.0 μg/mL, T = 14 days): 90.21 ± 0.94%
% of the target concentration measured in freshly prepared samples ([3]; VAMS devices, stored at −80 °C, 60.0 μg/mL, T = 30 days): 93.53 ± 0.68%
degradation ([3]; 0.5 μg/mL): 25%
degradation ([3]; 60 μg/mL): 52%
Structure (SMILES): NC(=O)NO [hydroxyurea, Hydroxyurea]
typical peak serum or plasma hydroxyurea concentrations ([2]; children with SCA, measured by colorimetry): 15 to 45 µg/mL
elimination [2]: primarily by renal clearance
half-life [2]: 1 to 3 h
time drug is detectable after the daily dose ([2]; most patients): 6 to 8 h
time of peak serum concentrations after administration ([2]; oral, once daily): 15 to 60 min
oral bioavailability ([2]; oral): excellent
